Results: patent US20040014047A1, “Antisense modulation of LIM domain kinase 1 expression” (Isis Pharmaceuticals Inc., priority 2002, published 2004)
Strand notation (5' to 3'): a small letter for the sugar, then the base; units joined by * are phosphorothioate-linked, units joined directly phosphodiester-linked; [ ] holds rarer units or linkages, { } end groups; capitals alone tell only the bases. e = 2'-O-(2-methoxyethyl) (MOE); [5mC] = 5-methylcytosine; d = 2'-deoxy (DNA)

System: human LIM domain kinase 1 mRNA
Test: Antisense inhibition of human LIM domain kinase 1 mRNA levels, quantitative real-time PCR, A549 cells (screen)
Type: cell-based
Conditions: for % INHIB (inhibition of human LIM domain kinase 1 mRNA levels): quantitative real-time PCR, averages from two experiments, screening concentration not given (50 nM to 300 nM used herein); for inhibition of human LIM domain kinase 1 expression (text summary of Table 1): real-time PCR, bound stated
Experimental: When cells reached 70% confluency, they were treated with oligonucleotide. […] Cells were harvested 16-24 hours after oligonucleotide treatment.
Vacuum was applied for 1 minute.
PCR reagents were obtained from Invitrogen Corporation, (Carlsbad, Calif.).
Total RNA is quantified using RiboGreenTM RNA quantification reagent from Molecular Probes.
Probes and primers to human LIM domain kinase 1 were designed to hybridize to a human LIM domain kinase 1 sequence, using published sequence information (GenBank accession number D26309.1, incorporated herein as SEQ ID NO:4). For human LIM domain kinase 1 the PCR primers were: forward primer: […] (SEQ ID NO: 5) reverse primer: […] (SEQ ID NO: 6) and the PCR probe was: FAM-[…]-TAMRA (SEQ ID NO: 7) where FAM is the fluorescent dye and TAMRA is the quencher dye.
All cytidine residues are 5-methylcytidines. […] Data are averages from two experiments in which A549 cells were treated with the oligonucleotides of the present invention. […] If present, “N.D.” indicates “no data”.

206237 (antisense eG*eT*e[5mC]*e[5mC]*eT*dG*d[5mC]*d[5mC]*d[5mC]*d[5mC]*dA*d[5mC]*dA*dG*dA*e[5mC]*eT*e[5mC]*eA*eG) [compound 206237]
% INHIB (inhibition of human LIM domain kinase 1 mRNA levels): 62%

206238 (antisense eG*e[5mC]*eA*eT*eG*dA*dA*dG*dG*d[5mC]*dA*d[5mC]*dT*dA*d[5mC]*e[5mC]*eT*e[5mC]*e[5mC]*e[5mC]) [compound 206238]
% INHIB (inhibition of human LIM domain kinase 1 mRNA levels): 53%

aaaggatggcctcttctcgg (eA*eA*eA*eG*eG*dA*dT*dG*dG*d[5mC]*d[5mC]*dT*d[5mC]*dT*dT*e[5mC]*eT*e[5mC]*eG*eG; antisense) [ISIS 206205]
inhibition of human LIM domain kinase 1 expression (text summary of Table 1): at least 65%

aacctcatgcactcgacggg (eA*eA*e[5mC]*e[5mC]*eT*d[5mC]*dA*dT*dG*d[5mC]*dA*d[5mC]*dT*d[5mC]*dG*eA*e[5mC]*eG*eG*eG; antisense) [ISIS 206161]
inhibition of human LIM domain kinase 1 expression (text summary of Table 1): at least 65%

aagcttcacagttttaatac (eA*eA*eG*e[5mC]*eT*dT*d[5mC]*dA*d[5mC]*dA*dG*dT*dT*dT*dT*eA*eA*eT*eA*e[5mC]; antisense) [ISIS 206217]
inhibition of human LIM domain kinase 1 expression (text summary of Table 1): at least 65%

acatctgggctcatgcagcc (eA*e[5mC]*eA*eT*e[5mC]*dT*dG*dG*dG*d[5mC]*dT*d[5mC]*dA*dT*dG*e[5mC]*eA*eG*e[5mC]*e[5mC]; antisense) [ISIS 206180]
inhibition of human LIM domain kinase 1 expression (text summary of Table 1): at least 65%

actgcctctcgggttcaagc (eA*e[5mC]*eT*eG*e[5mC]*d[5mC]*dT*d[5mC]*dT*d[5mC]*dG*dG*dG*dT*dT*e[5mC]*eA*eA*eG*e[5mC]; antisense) [ISIS 206228]
inhibition of human LIM domain kinase 1 expression (text summary of Table 1): at least 65%

agcttggagtgctccaccag (eA*eG*e[5mC]*eT*eT*dG*dG*dA*dG*dT*dG*d[5mC]*dT*d[5mC]*d[5mC]*eA*e[5mC]*e[5mC]*eA*eG; antisense) [ISIS 206177]
inhibition of human LIM domain kinase 1 expression (text summary of Table 1): at least 65%

agggcctggaggtactggcc (eA*eG*eG*eG*e[5mC]*d[5mC]*dT*dG*dG*dA*dG*dG*dT*dA*d[5mC]*eT*eG*eG*e[5mC]*e[5mC]; antisense) [ISIS 206171]
inhibition of human LIM domain kinase 1 expression (text summary of Table 1): at least 65%

aggtaggccatccctgatgc (eA*eG*eG*eT*eA*dG*dG*d[5mC]*d[5mC]*dA*dT*d[5mC]*d[5mC]*d[5mC]*dT*eG*eA*eT*eG*e[5mC]; antisense) [ISIS 206201]
inhibition of human LIM domain kinase 1 expression (text summary of Table 1): at least 65%

aggtccttgcgctgggaggc (eA*eG*eG*eT*e[5mC]*d[5mC]*dT*dT*dG*d[5mC]*dG*d[5mC]*dT*dG*dG*eG*eA*eG*eG*e[5mC]; antisense) [ISIS 206193]
inhibition of human LIM domain kinase 1 expression (text summary of Table 1): at least 65%

agtacagcttggagtgctcc (eA*eG*eT*eA*e[5mC]*dA*dG*d[5mC]*dT*dT*dG*dG*dA*dG*dT*eG*e[5mC]*eT*e[5mC]*e[5mC]; antisense) [ISIS 206178]
inhibition of human LIM domain kinase 1 expression (text summary of Table 1): at least 65%

agtagtccttcttgcagaag (eA*eG*eT*eA*eG*dT*d[5mC]*d[5mC]*dT*dT*d[5mC]*dT*dT*dG*d[5mC]*eA*eG*eA*eA*eG; antisense) [ISIS 206173]
inhibition of human LIM domain kinase 1 expression (text summary of Table 1): at least 65%

atacgttcttccctccaggt (eA*eT*eA*e[5mC]*eG*dT*dT*d[5mC]*dT*dT*d[5mC]*d[5mC]*d[5mC]*dT*d[5mC]*e[5mC]*eA*eG*eG*eT; antisense) [ISIS 206167]
inhibition of human LIM domain kinase 1 expression (text summary of Table 1): at least 65%

atgctgcagctcctcctggg (eA*eT*eG*e[5mC]*eT*dG*d[5mC]*dA*dG*d[5mC]*dT*d[5mC]*d[5mC]*dT*d[5mC]*e[5mC]*eT*eG*eG*eG; antisense) [ISIS 206232]
inhibition of human LIM domain kinase 1 expression (text summary of Table 1): at least 65%

atttccaagatccggtctcc (eA*eT*eT*eT*e[5mC]*d[5mC]*dA*dA*dG*dA*dT*d[5mC]*d[5mC]*dG*dG*eT*e[5mC]*eT*e[5mC]*e[5mC]; antisense) [ISIS 206184]
inhibition of human LIM domain kinase 1 expression (text summary of Table 1): at least 65%

caggtgcaacaaagtagcgt (e[5mC]*eA*eG*eG*eT*dG*d[5mC]*dA*dA*d[5mC]*dA*dA*dA*dG*dT*eA*eG*e[5mC]*eG*eT; antisense) [ISIS 206164]
inhibition of human LIM domain kinase 1 expression (text summary of Table 1): at least 65%

cattcttgttctcgcggacc (e[5mC]*eA*eT*eT*e[5mC]*dT*dT*dG*dT*dT*d[5mC]*dT*d[5mC]*dG*d[5mC]*eG*eG*eA*e[5mC]*e[5mC]; antisense) [ISIS 206204]
inhibition of human LIM domain kinase 1 expression (text summary of Table 1): at least 65%

ccacctcccgcggaggaatc (e[5mC]*e[5mC]*eA*e[5mC]*e[5mC]*dT*d[5mC]*d[5mC]*d[5mC]*dG*d[5mC]*dG*dG*dA*dG*eG*eA*eA*eT*e[5mC]; antisense) [ISIS 206208]
inhibition of human LIM domain kinase 1 expression (text summary of Table 1): at least 65%

ccaggtgagtgtgcaaggca (e[5mC]*e[5mC]*eA*eG*eG*dT*dG*dA*dG*dT*dG*dT*dG*d[5mC]*dA*eA*eG*eG*e[5mC]*eA; antisense) [ISIS 206230]
inhibition of human LIM domain kinase 1 expression (text summary of Table 1): at least 65%

cctccagggagctatggacc (e[5mC]*e[5mC]*eT*e[5mC]*e[5mC]*dA*dG*dG*dG*dA*dG*d[5mC]*dT*dA*dT*eG*eG*eA*e[5mC]*e[5mC]; antisense) [ISIS 206210]
inhibition of human LIM domain kinase 1 expression (text summary of Table 1): at least 65%

cgccatagcgggcccagtag (e[5mC]*eG*e[5mC]*e[5mC]*eA*dT*dA*dG*d[5mC]*dG*dG*dG*d[5mC]*d[5mC]*d[5mC]*eA*eG*eT*eA*eG; antisense) [ISIS 206176]
inhibition of human LIM domain kinase 1 expression (text summary of Table 1): at least 65%

ctcagacccttgagttactg (e[5mC]*eT*e[5mC]*eA*eG*dA*d[5mC]*d[5mC]*d[5mC]*dT*dT*dG*dA*dG*dT*eT*eA*e[5mC]*eT*eG; antisense) [ISIS 206227]
inhibition of human LIM domain kinase 1 expression (text summary of Table 1): at least 65%

ctctgggccacggcagagag (e[5mC]*eT*e[5mC]*eT*eG*dG*dG*d[5mC]*d[5mC]*dA*d[5mC]*dG*dG*d[5mC]*dA*eG*eA*eG*eA*eG; antisense) [ISIS 206209]
inhibition of human LIM domain kinase 1 expression (text summary of Table 1): at least 65%

ctgctgcagccgtatgaaaa (e[5mC]*eT*eG*e[5mC]*eT*dG*d[5mC]*dA*dG*d[5mC]*d[5mC]*dG*dT*dA*dT*eG*eA*eA*eA*eA; antisense) [ISIS 206162]
inhibition of human LIM domain kinase 1 expression (text summary of Table 1): at least 65%

ctggctgtccatgctcttga (e[5mC]*eT*eG*eG*e[5mC]*dT*dG*dT*d[5mC]*d[5mC]*dA*dT*dG*d[5mC]*dT*e[5mC]*eT*eT*eG*eA; antisense) [ISIS 206200]
inhibition of human LIM domain kinase 1 expression (text summary of Table 1): at least 65%

cttcctctcccatacgttct (e[5mC]*eT*eT*e[5mC]*e[5mC]*dT*d[5mC]*dT*d[5mC]*d[5mC]*d[5mC]*dA*dT*dA*d[5mC]*eG*eT*eT*e[5mC]*eT; antisense) [ISIS 206169]
inhibition of human LIM domain kinase 1 expression (text summary of Table 1): at least 65%

gacaggtttctgccgggcag (eG*eA*e[5mC]*eA*eG*dG*dT*dT*dT*d[5mC]*dT*dG*d[5mC]*d[5mC]*dG*eG*eG*e[5mC]*eA*eG; antisense) [ISIS 206190]
inhibition of human LIM domain kinase 1 expression (text summary of Table 1): at least 65%

gcagctgctgctgcagccgt (eG*e[5mC]*eA*eG*e[5mC]*dT*dG*d[5mC]*dT*dG*d[5mC]*dT*dG*d[5mC]*dA*eG*e[5mC]*e[5mC]*eG*eT; antisense) [ISIS 206215]
inhibition of human LIM domain kinase 1 expression (text summary of Table 1): at least 65%

gcagtgcccgcagtacagct (eG*e[5mC]*eA*eG*eT*dG*d[5mC]*d[5mC]*d[5mC]*dG*d[5mC]*dA*dG*dT*dA*e[5mC]*eA*eG*e[5mC]*eT; antisense) [ISIS 206179]
inhibition of human LIM domain kinase 1 expression (text summary of Table 1): at least 65%

gcagtgcccgctgcaagagc (eG*e[5mC]*eA*eG*eT*dG*d[5mC]*d[5mC]*d[5mC]*dG*d[5mC]*dT*dG*d[5mC]*dA*eA*eG*eA*eG*e[5mC]; antisense) [ISIS 206231]
inhibition of human LIM domain kinase 1 expression (text summary of Table 1): at least 65%

gcatcgcatgaccttcacct (eG*e[5mC]*eA*eT*e[5mC]*dG*d[5mC]*dA*dT*dG*dA*d[5mC]*d[5mC]*dT*dT*e[5mC]*eA*e[5mC]*e[5mC]*eT; antisense) [ISIS 206197]
inhibition of human LIM domain kinase 1 expression (text summary of Table 1): at least 65%

gccattgatttccaagatcc (eG*e[5mC]*e[5mC]*eA*eT*dT*dG*dA*dT*dT*dT*d[5mC]*d[5mC]*dA*dA*eG*eA*eT*e[5mC]*e[5mC]; antisense) [ISIS 206185]
inhibition of human LIM domain kinase 1 expression (text summary of Table 1): at least 65%

gctgctgcagccgtatgaaa (eG*e[5mC]*eT*eG*e[5mC]*dT*dG*d[5mC]*dA*dG*d[5mC]*d[5mC]*dG*dT*dA*eT*eG*eA*eA*eA; antisense) [ISIS 206224]
inhibition of human LIM domain kinase 1 expression (text summary of Table 1): at least 65%

ggaattcttcacatctgggc (eG*eG*eA*eA*eT*dT*d[5mC]*dT*dT*d[5mC]*dA*d[5mC]*dA*dT*d[5mC]*eT*eG*eG*eG*e[5mC]; antisense) [ISIS 206182]
inhibition of human LIM domain kinase 1 expression (text summary of Table 1): at least 65%

ggagtgaaagcacccagctg (eG*eG*eA*eG*eT*dG*dA*dA*dA*dG*d[5mC]*dA*d[5mC]*d[5mC]*d[5mC]*eA*eG*e[5mC]*eT*eG; antisense) [ISIS 206225]
inhibition of human LIM domain kinase 1 expression (text summary of Table 1): at least 65%
